Laboratory results: patent US8906967B2 (priority 2007, dated 2014)
Read-outs that look alike come from different tables or passages of the source.

Tested on: Clostridium perfringens ATCC 13124
Assay type: cell-based
Settings: 37° C., culture broth

| Compound | growth of Clostridium perfringens (1.2 ppm sesquiterpene) | growth of Clostridium perfringens (2 ppm sesquiterpene) | growth of Clostridium perfringens (100 ppm sesquiterpene) | growth of Clostridium perfringens (10 ppm sesquiterpene) | also measured |
| --- | --- | --- | --- | --- | --- |
| CC1=C2CC[C@@H](C)[C@H]2[C@H]2[C@@H](CC1)C2(C)C [(+) ledene] | − | − | − |  |  |
| C[C@@H]1CC[C@@H]2[C@@H]1[C@H]1[C@@H](CC[C@]2(C)O)C1(C)C [(−) epiglobulol] |  | + | − | − | growth of Clostridium perfringens (0.5 ppm sesquiterpene): + |
| C[C@@H]1CC[C@@H]2[C@H](C3=C1CC[C@H]3C)C2(C)C [(−) iso-ledene] |  |  | − |  | growth of Clostridium perfringens (0.5 ppm sesquiterpene): + |
| C=C1CC[C@@H]2[C@H]([C@@H]3[C@H](C)CC[C@@H]13)C2(C)C [Aromadendrene] |  |  | − |  | growth of Clostridium perfringens (0.5 ppm sesquiterpene): + |
| C[C@@H]1CC[C@H]2C(C)(C)[C@H]3C[C@@]12CC[C@@]3(C)O [Cedrol] |  | + |  | − |  |
| CC(C)=CCCC(C)=CCCC(C)=CC=O [Farnesal] |  | + |  |  |  |
| CC(C)=C1C/C=C(\C)CC/C=C(\C)CC1=O [Germacrone] |  |  | − |  | growth of Clostridium perfringens (0.5 ppm sesquiterpene): +; growth of Clostridium perfringens (6 ppm sesquiterpene): +; growth of Clostridium perfringens (30 ppm sesquiterpene): − |
| C=C1[C@H]2CC[C@@H]3[C@H]2C(C)(C)CCC[C@]13C [Longifolene] | − | − |  | − | growth of Clostridium perfringens (0.3 ppm sesquiterpene): + |
| C=CC(C)(O)CCC=C(C)CCC=C(C)C (centres unmarked) [Nerolidol] |  | + |  | − |  |
| C=C1CC[C@@H]2[C@H]([C@@H]3[C@H](C)CC[C@H]13)C2(C)C [allo-aromadendrene] |  | − | − |  |  |
| CC(=O)O[C@]1(C)CC[C@@]23C[C@@H]1C(C)(C)[C@@H]2CC[C@H]3C [cedryl acetate] |  | − |  | − |  |
| CC(=O)OCC=C(C)CCC=C(C)CCC=C(C)C [farnesyl acetate] |  | − |  | − |  |
| CC(=O)CCC=C(C)CCC=C(C)CCC=C(C)C [farnesyl acetone] |  | − |  | − |  |
| CC(C)=CCC/C(C)=C/CC/C(C)=C/CO [trans-trans farnesol] |  | + |  | − |  |
| CC1=CC[C@@]23C[C@@H]1C(C)(C)[C@@H]2CC[C@H]3C [α-cedrene] | − | − |  | − |  |
| CC1=CC[C@H]2[C@H]3[C@@H]1[C@]2(C)CC[C@H]3C(C)C [α-copaene] | − |  | − |  | growth of Clostridium perfringens (0.5 ppm sesquiterpene): + |
| CC1=CC[C@@]23[C@@H]([C@@H]12)[C@H](C(C)C)CC[C@H]3C [α-cubebene] | − |  | − |  |  |
| C/C1=C\CC/C(C)=C/CC(C)(C)/C=C/C1 [α-humulene (α-caryophyllene)] | − | − |  | − | growth of Clostridium perfringens (0.3 ppm sesquiterpene): +; growth of Clostridium perfringens (0.4 ppm sesquiterpene): + |
| C=C1CC/C=C(\C)CC[C@@H]2[C@@H]1CC2(C)C [β-caryophyllene] |  | − | − |  | growth of Clostridium perfringens (0.2 ppm sesquiterpene): +; growth of Clostridium perfringens (1 ppm sesquiterpene): − |
| C=C1CC[C@@]23C[C@@H]1C(C)(C)[C@@H]2CC[C@H]3C [β-cedrene] | − | − |  | − |  |
| C=C1C/C=C/C(C)(C)C/C=C(\C)CCC1 [β-humulene] | − |  |  |  | growth of Clostridium perfringens (0.4 ppm sesquiterpene): + |
| C=C1C=CC(C)(C)CCCC(C)=CCC1 [γ-humulene] |  |  |  |  | growth of Clostridium perfringens (0.4 ppm sesquiterpene): + |
| (−) globulol |  | + | − | − | growth of Clostridium perfringens (0.5 ppm sesquiterpene): + |
| bisabolene/farnesene | − | − |  | − | growth of Clostridium perfringens (0.3 ppm sesquiterpene): + |
| cedrene-9-ol |  | + |  | + |  |
| α-bisabolol |  | + |  |  |  |
